Target: T1, catalytic domain of human gelatinase-A (MMP-9) (Homo sapiens, UniProt P14780)
T1 construct: Determination of the Enzymatic Activity of the Catalytic Domain of Human Gelatinase-A (MMP-9); purchased Roche, Mannheim
Assay: Enzymatic activity of the catalytic domain of human gelatinase (MMP-9), fluorogenic substrate
Assay type: biochemical
Details: stated in the text
Experimental: Determination of the Enzymatic Activity of the Catalytic Domain of Human Gelatinase-A (MMP-9)
Activation of the proenzyme:
2 parts by volume of proenzyme were incubated with 1 part by volume of APMA solution at 37° C. for 4 hours. The APMA solution was prepared from a 10 mmol/l p-aminophenylmercuric acetate solution in 0.1 mmol/l NaOH by dilution with 3 parts by volume of Tris/HCl buffer pH 7.5 (see below). The pH was adjusted to between 7.0 and 7.5 by adding 1 mmol/l HCl. After activation of the enzyme it was diluted with the Tris/HCl buffer to a concentration of 4.2 mU/ml.
The enzymic activity was measured by incubating 10 μl of enzyme solution with 10 μl of a 3% strength (v/v) buffered dimethyl sulfoxide solution (reaction 1) for 15 minutes. The enzyme inhibitor activity was measured by incubating 10 μl of enzyme solution with 10 μl of a 3% strength (v/v) buffered dimethyl sulfoxide solution which contained the enzyme inhibitor (reaction 2).
The enzymic reaction both in the case of reaction 1 and in the case of reaction 2 was followed after addition of 10 μl of a 3% strength (v/v) aqueous dimethyl sulfoxide solution which contained 0.15 mmol/l of the substrate by fluorescence spectroscopy (328 nm (extinction)/393 nm (emission)).
The enzymic activity has been presented as increase in extinction/minute.
The effect of the inhibitor was calculated as percentage inhibition by the following formula: % inhibition=100−[(increase in extinction/minute in reaction 2)/(increase in extinction/minute in reaction 1)×100].
The IC50, which is the concentration of inhibitor which is necessary for 50% inhibition of the enzymic activity, was determined graphically by plotting the percentage inhibitions at various inhibitor concentrations.
The buffer solution contained 0.05% Brij (Sigma, Deisenhofen, Germany) and 0.1 mol/l Tris/HCl, 0.1 mol/l NaCl, 0.01 mol/l CaCl2 (pH=7.5). The enzyme solution contained 4.2 mU/ml of the enzyme domain. The substrate solution contained 0.15 mmol/l of the fluorogenic substrate (7-methoxycoumarin-4-yl)acetyl-Pro-Leu-Gly-Leu-3-(2′,4′-dinitrophenyl)-L-2,3-diaminopropionyl-Ala-Arg-NH2 (Bachem, Heidelberg, Germany).

T1 sequence (P14780 107-707 limits assumed): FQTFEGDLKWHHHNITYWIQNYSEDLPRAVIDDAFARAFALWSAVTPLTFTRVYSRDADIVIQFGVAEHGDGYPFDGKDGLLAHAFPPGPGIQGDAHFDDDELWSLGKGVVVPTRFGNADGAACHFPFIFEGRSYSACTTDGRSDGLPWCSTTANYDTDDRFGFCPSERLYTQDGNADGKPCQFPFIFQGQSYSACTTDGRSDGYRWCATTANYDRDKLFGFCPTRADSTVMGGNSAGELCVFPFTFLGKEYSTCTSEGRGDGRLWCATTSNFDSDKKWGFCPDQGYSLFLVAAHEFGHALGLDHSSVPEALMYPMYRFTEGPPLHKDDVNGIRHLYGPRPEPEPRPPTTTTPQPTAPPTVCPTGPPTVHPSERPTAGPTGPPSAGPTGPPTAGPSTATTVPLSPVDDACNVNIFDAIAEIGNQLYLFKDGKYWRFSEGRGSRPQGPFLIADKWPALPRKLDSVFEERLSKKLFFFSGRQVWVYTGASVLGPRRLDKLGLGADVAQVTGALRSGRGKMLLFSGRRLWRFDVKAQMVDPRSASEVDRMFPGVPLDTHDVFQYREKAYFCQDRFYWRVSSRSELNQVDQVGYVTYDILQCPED

ratio of MMP1 to MMP9 inhibition | SMILES
3.7 | COc1ccc(S(=O)(=O)N2CCc3ccccc3C2C(=O)NO)cc1 (centres unmarked) [reference compound]
60 | COc1ccc(Oc2ccc(S(=O)(=O)N3CCc4ccccc4C3C(=O)NO)cc2)cc1 (centres unmarked)

Source: US20070203118A1, “SUBSTITUTED TETRAHYDROISOQUINOLINES USED IN THE FORM OF MMP INHIBITORS, METHOD FOR THE PRODUCTION AND USE THEREOF IN THE FORM OF DRUGS” (SANOFI-AVENTIS DEUTSCHLAND GMBH, priority 2004, published 2007)
